Source: patent CN115227715A, “一种用于治疗癌症的联合用药物和药物组合物” (priority 2021, dated 2022)

Tests used:
CK2 = CK2 (Homo sapiens, UniProt P68400); conditions: cited from earlier work
[1] = system: cholangiocarcinoma cells (胆管癌细胞); conditions: cited from earlier work
Cal-27 cells [2] = test: Macropinocytosis marker Dextran AF488 uptake and organelle probe co-localization, confocal microscopy (Experimental Example 1, Fig. 1b-1e); assay type: cell-based
UM1 cells = test: CX-4945-induced vacuolization, phase-contrast microscopy (Experimental Example 1, Fig. 1a); assay type: cell-based; conditions: 40μM CX-4945, 12h
[3] = system: colorectal cancer cells (结直肠癌细胞); conditions: cited from earlier work
[4] = system: non-small cell lung cancer cells (非小细胞肺癌细胞); conditions: cited from earlier work
Cal-27 cells [5] = test: CX-4945-induced vacuolization, phase-contrast microscopy (Experimental Example 1, Fig. 1a); assay type: cell-based; conditions: 20μM CX-4945, 12h
HSC-4 cells = test: as above; assay type: cell-based; conditions: 20μM CX-4945, 12h
HSC-3 cells = test: as above; assay type: cell-based; conditions: 40μM CX-4945, 12h

Chain of CK2 (P68400 whole entry): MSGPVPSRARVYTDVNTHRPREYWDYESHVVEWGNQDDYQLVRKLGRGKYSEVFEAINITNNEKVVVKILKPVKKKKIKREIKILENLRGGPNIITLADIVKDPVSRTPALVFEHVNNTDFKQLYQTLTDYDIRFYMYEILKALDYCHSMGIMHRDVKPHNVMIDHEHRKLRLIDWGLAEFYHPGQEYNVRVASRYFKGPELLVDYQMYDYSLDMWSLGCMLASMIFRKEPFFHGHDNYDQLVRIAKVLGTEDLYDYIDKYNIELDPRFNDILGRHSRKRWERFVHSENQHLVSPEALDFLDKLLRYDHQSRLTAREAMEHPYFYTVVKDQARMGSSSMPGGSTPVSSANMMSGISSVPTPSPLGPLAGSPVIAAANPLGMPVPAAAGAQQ

O=C(O)c1ccc2c(c1)nc(Nc1cccc(Cl)c1)c1ccncc12 [CX-4945]
selectivity as CK2 inhibitor (CK2): 高度选择性
induction of macropinocytosis [1]: 可诱导巨胞饮的发生
Dextran AF488 uptake in vacuoles (Cal-27 cells [2]; 10μM CX-4945, 0.5mg/mL Dextran AF488, 12h): 大多数空泡内都摄入了大量的Dextran AF488,呈现Dextran AF488阳性
co-localization of Dextran AF488-positive vacuoles with endoplasmic reticulum (Cal-27 cells [2]; 10μM CX-4945, 0.5mg/mL Dextran AF488, ER-tracker, 12h): 不与内质网共定位
co-localization of Dextran AF488-positive vacuoles with lysosomes (Cal-27 cells [2]; 10μM CX-4945, 0.5mg/mL Dextran AF488, Lyso-tracker, 12h): 有一部分与溶酶体共定位
co-localization of Dextran AF488-positive vacuoles with mitochondria (Cal-27 cells [2]; 10μM CX-4945, 0.5mg/mL Dextran AF488, Mito-tracker, 12h): 不与线粒体共定位
vacuole formation (UM1 cells): 均产生了空泡
induction of macropinocytosis [3]: 可诱导巨胞饮的发生
induction of macropinocytosis [4]: 可诱导巨胞饮的发生
vacuole formation (Cal-27 cells [5]): 均产生了空泡
vacuole formation (HSC-4 cells): 均产生了空泡
vacuole formation (HSC-3 cells): 均产生了空泡
